From publication PMC6125430, “Structural Analysis of Redox-sensing Transcriptional Repressor Rex from Thermotoga maritima” (Scientific Reports, 2018)

Experiments:
[1] = biological target: T1, TmRex (Thermotoga maritima, UniProt Q9WY16); assay: X-ray crystallography of the complex; assay type: binding; settings: 1:1 per C-terminal domain
T1 construct: gene rex1; full-length gene (pET28b NdeI/XhoI), N-terminal His6 tag (tag removal told only for SeMet protein), E. coli BL21(DE3) Star pLysS; homodimer; primers encode N-terminal MAEKIPK

[2] = biological target: the molecule itself; assay: crystal structure; apo TmRex, native protein, 2.0 Å; sitting-drop vapour diffusion at 296 K, 200 mM potassium chloride, 20% (w/v) PEG 3,350; four subunits (two homodimers) in the asymmetric unit

## NC(=O)c1ccc[n+]([C@@H]2O[C@H](COP(=O)(O)OP(=O)(O)OC[C@H]3O[C@@H](n4cnc5c(N)ncnc54)[C@H](O)[C@@H]3O)[C@@H](O)[C@H]2O)c1 [NAD^+]
[1]; apo crystals soaked with 1 mM NAD+ for 10 h, 2.2 A, open form
  X-ray crystallography of the complex: The structure of NAD^+-bound TmRex was refined with crystallographic Rwork and Rfree values

## NC(=O)C1=CN([C@@H]2O[C@H](COP(=O)(O)OP(=O)(O)OC[C@H]3O[C@@H](n4cnc5c(N)ncnc54)[C@H](O)[C@@H]3O)[C@@H](O)[C@H]2O)C=CC1 [NADH]
[1]; co-crystallization with 1 mM NADH, 2.45 A, closed form
  X-ray crystallography of the complex: NADH-bound TmRex crystals were grown by co-crystallization

B1: Redox-sensing transcriptional repressor Rex from Thermotoga maritima (natural protein, UniProt Q9WY16 1-208, looked up)
chain: MAEKIPKPVSKRLVSYYMCLERLLDEGVEVVSSEELARRLDLKASQIRKDLSYFGEFGKRGVGYNVEHLYDAIGEILGVKKEWKLVVVGAGNIGRAVANYTVMKEKGFRIIGIFDSDPSKIGKEAAPGLTVSDVSELEKFVEEHGVEIGVIAVPAEHAQEIAERLEKAGIKGILNFAPVKIKVSVPVENIDITASLRVLTFEIVRRNS
notes: Rex (TM0169) of Thermotoga maritima, rex gene amplified from genomic DNA with primers from the ATG start codon to the stop codon; residues 1-208 (N-terminal domain 1-77, linker loop 78-83, C-terminal domain 84-208); Cloned into pET28b(+) with NdeI and XhoI; for the native protein in the deposited structures no removal is told; also called TmRex; TM0169; source: E. coli BL21 (DE3) star pLysS, …
[2]
  binding result: binds
